Results taken from patent US9856225B2, “Substituted phenazines as antimicrobial agents” (University of Florida Research Foundation, Incorporated, priority 2013, dated 2018).
Several values for one entry are separate records, joined by “and”; a condition that tells them apart may be missing. Equal values may be shown once. Entries after “also recorded” stand apart in the source; their conditions may differ. Read-outs that look alike come from different tables or passages of the source. Marks after values point to notes of the source that are not given here.

What was measured:
Assay type in all cases: cell-based
[1] = system: Staphylococcus aureus (ATCC 25923) biofilm; assay: Biofilm inhibition, crystal violet staining; parameters: MIC/IC50 Biofilm: unit not given here; conditions: for IC50: Staphylococcus aureus; for MIC/IC50 Biofilm: ratio of MIC to IC50 of biofilm inhibition; for Phenotype: planktonic growth vs biofilm formation
Procedure: Biofilm Inhibition Protocol for S. aureus (ATCC 25923). A serial two-fold dilution of 2× bromophenazine small molecule concentration was made in 100 μL tryptic soy broth (TSB) medium with 0.5% glucose were delivered into 0.1% gelatin (Millipore) coated 96-well tissue culture plates. […] To each well, 100 μL of TSB with 0.5% glucose containing 2×10^6 CFU/mL Staphylococcus aureus cells, prepared from fresh culture (OD600 of 0.8), was added. The plates were incubated at 37° C. for 24 hours. The wells were gently rinsed by submerging the entire plates in a tub of cold, running tap water. The wells were then fixed with 200 μL methanol for 15 minutes. After the plates were air dried, the biofilms were stained with 100 μL of 1% crystal violet for 10 minutes. The plates were again rinsed with running water. After drying in air, quantitative assessment of biofilm formation was obtained by extracting the crystal violet associated with the remaining biofilm with 100 μL per well of the following bleaching solution (methanol:glacial acetic acid:water (v/v/v)=4:1:5). This bleaching solution dissolved the bound crystal violet and produced a violet-colored solution in each well. The intensity of coloration was determined by measuring the absorbance at 540 nm.

[2] = system: Acinetobacter baumannii (ATCC 19606) biofilm; assay: Biofilm inhibition, Mueller-Hinton broth, crystal violet; conditions: for inhibition at 100 µM: Acinetobacter baumannii
Procedure: (§1) Biofilm Inhibition Protocol for A. baumannii (ATCC 19606): In a 96-well plate, ten two-fold serial dilutions of each compound tested were made from the highest concentration tested (100 μM) in a final volume of 100 μL in Mueller-Hinton broth (one column served as a blank). Each well was inoculated with ˜7×10^6 colony forming units per milliliter (corresponding to an OD600 of 0.01 prepared directly from an overnight culture). A lid was placed on the 96-well plate which was wrapped in suran wrap, placed in a humidifying chamber and incubated under static conditions at 37° C. for 24 hours. Following incubation, the media and planktonic bacteria were then removed from 96-well plates and the wells were then washed with water. The bacterial biofilms within the microtiter wells were stained with 200 μL of an aqueous 0.1% crystal violet solution that was allowed to stand for 10-20 minutes. The crystal violet stain was then removed, the wells were rinsed with water and dried. The crystal violet stain that remained on the inside of the wells (i.e., stained bacterial biofilm) on the inside of the wells was solubilized by the addition of 200 μL ethanol and absorbance was read at OD540 using a spectrophotometer. NOTE: The concentration range tested for each compound was 0.2-100 μM. Single data points for all compounds and DMSO controls were tested in two replicate rows in 96-well plates and corresponding absorbance readings were averaged for the quantification of planktonic growth and biofilm formation. Reported percent biofilm inhibition was determined by the comparison of compound treated wells (the average of the two replicate wells) versus vehicle control wells without compound following background subtraction (i.e., an empty, untreated well) and reported from 2 to 4 independent overnight cultures. DMSO was serially diluted at the same concentration as test compounds with a top concentration of 1% v/v.
(§2) The bromophenazines were also evaluated against the Gram-negative bacterium Acinetobacter baumannii in order to identify biofilm modulating small molecules against this emerging pathogen. Acinetobacter baumannii is notorious for its ability to persist as bacterial biofilms on hospital surfaces, giving rise to many multidrug-resistant nosocomial infections. Clinical isolates of A. baumannii have been identified that are resistant to every class of antibiotic clinically used. The bromophenazines were evaluated against Acinetobacter baumannii ATCC 19606 in biofilm inhibition assays. Bromophenazines were allowed to incubate in 96-well plates with Acinetobacter baumannii (˜7×10^6 CFUmL^−1 by adjusting an overnight culture to an OD600˜0.01) for 24 hours at 37° C. using Mueller-Hinton broth followed by spectrophometer readings of each plate to evaluate planktonic growth (OD600) and biofilm formation (OD540 after crystal violet stain of biofilms inside microtiter wells). […] This biofilm inhibition with activation of planktonic growth activity was dose-dependent with bromophenazine 17a (see FIG. 20).

[3] = system: Staphylococcus aureus (ATCC 25923); assay: MIC broth microdilution (CLSI), Luria Broth
Procedure: (§3) Antibiotic Susceptibility Tests (MIC Assay Protocol). The minimum inhibitory concentration (MIC) for each compound described herein was determined by the broth microdilution method as recommended by the Clinical and Laboratory Standards Institute (CLSI) (Clinical and Laboratory Standards Institute. 2009. Methods for dilution antimicrobial susceptibility tests for bacteria that grow aerobically; approved standard, eighth edition (M7-A8)). In a 96-well plate, eleven two-fold serial dilutions of each compound were made in a final volume of 100 μL Luria Broth (one column served as a blank; see the MIC assay described herein). Each well was inoculated with 10^5 bacterial cells at the initial time of incubation, prepared from a fresh log phase culture (OD600 of 0.5). […] The concentration range tested for each compound during this study was 0.10 to 100 μM. DMSO served as the vehicle and negative control in each microdilution MIC assay. DMSO was serially diluted at the same concentration as the compounds with a top concentration of 1% v/v. Bacterial strains used: Staphylococcus aureus (ATCC 25923), Staphylococcus epidermidis (ATCC 12228) and Pseudomonas aeruginosa (PAO1). Kanamycin was used as a positive control against Staphylococcus aureus and Staphylococcus epidermidis.

[4] = system: Acinetobacter baumannii (ATCC 19606); assay: Planktonic growth (OD600) in biofilm inhibition assay; conditions: for increase in planktonic growth: OD600; for inhibition of growth at 100 µM: Acinetobacter baumannii, ATCC19606, 24 h, read-out: % Growth Inhibition at 100 μM
Procedure: as §1, with “Each” for “Biofilm Inhibition Protocol for A. baumannii (ATCC 19606): In a 96-well plate, ten two-fold serial dilutions of each compound tested were made from the highest concentration tested (100 μM) in a final volume of 100 μL in Mueller-Hinton broth (one column served as a blank). Each”, “NOTE: The concentration range tested for each compound was 0.2-100 μM.” left out
as §2

[5] = system: Staphylococcus epidermidis (ATCC 12228); assay: MIC broth microdilution (CLSI), Luria Broth; conditions: ATCC12228, Table 1, ATCC 12228, read-out: Staphylococcus epidermidis MIC
Procedure: as §3

[6] = ATCC25923, S. aureus ATCC 25923, single replicate screen, read-out: Biofilm Inhibition IC50
[7] = ATCC19606, A. baumannii ATCC 19606, 100 μM, read-out: % Biofilm Inhibition at 100 μM
[8] = Staphylococcus aureus, ATCC25923, Table 2, S. aureus ATCC 25923, Luria Broth, read-out: MIC
[9] = A. baumannii ATCC 19606, 100 μM, * = no growth inhibition at 200 μM
[10] = Staphylococcus aureus, ATCC25923, Table 1, ATCC 25923, range tested 0.10 to 100 μM, read-out: Staphylococcus aureus MIC
[11] = Staphylococcus aureus, ATCC25923, Table 1, ATCC 25923, read-out: Staphylococcus aureus MIC

SMILES	IC50 [1, 6] [µM]	MIC/IC50 Biofilm ([1]; S. aureus ATCC 25923)	MIC [3, 8] [µM]	inhibition at 100 µM [2, 7] [%]	inhibition of growth at 100 µM [4, 9] [%]	Phenotype ([1]; S. aureus ATCC 25923)	other results
Cc1cc(C)c(C(=O)Oc2c(Br)cc(Br)c3nc4ccccc4nc23)c(C)c1 [Compound 19a]	> 100		> 100	44 ± 10	-14 ± 2	inactive	increase in planktonic growth ([4]; 100 μM): ~15%; planktonic growth inhibition at 200 μM [4]: did not inhibit planktonic growth
O=C(Oc1c(Br)cc(Br)c2nc3ccccc3nc12)c1ccc2ccccc2c1 [Compound 21a]	> 100		> 100	35 ± 9	-15 ± 6	inactive	increase in planktonic growth ([4]; 100 μM): ~15%; planktonic growth inhibition at 200 μM [4]: did not inhibit planktonic growth
O=C(Oc1c(Br)cc(Br)c2nc3ccccc3nc12)c1ccc2c(c1)OCO2 [Compound 22a]	> 100		> 100	29 ± 4	-14 ± 5		
CN(C)C(=O)Oc1c(Br)cc(Br)c2nc3ccccc3nc12 [Compound 25a]							IC50 ([1]; ATCC25923, read-out: Biofilm Inhibition IC50): > 100 µM; inhibition at 100 µM ([2]; ATCC19606, read-out: % Biofilm Inhibition at 100 μM): 15 ± 1%; MIC ([3]; Staphylococcus aureus, ATCC25923): > 100 µM; inhibition of growth at 100 µM [4]: -3 ± 1%
O=C(Oc1c(Br)cc(Br)c2nc3ccccc3nc12)C1CCCCC1 [Compound 26, 2,4-Dibromophenazin-1-yl cyclohexanecarboxylate]	> 100		> 100	11 ± 1	-25 ± 5	inactive	Phenotype ([2]; A. baumannii ATCC 19606): inactive; MIC [3, 10]: > 100 µM; MIC [3, 11]: > 46.5 µg/mL
O=C(Oc1c(Br)cc(Br)c2nc3ccccc3nc12)N(c1ccccc1)c1ccccc1 [Compound 26a]	> 100		> 100	40 ± 2	-22 ± 8	inactive	
COc1c(Br)cc(Br)c2nc3ccccc3nc12 [Compound 27, 2,4-Dibromo-1-methoxyphenazine]							MIC [3, 10]: > 100 µM; MIC [3, 11]: > 36.9 µg/mL
CS(=O)(=O)Oc1c(Br)cc(Br)c2nc3ccccc3nc12 [Compound 29a]	> 100		> 100	1 ± 2	3 ± 3		Phenotype ([2]; A. baumannii ATCC 19606): inactive
NC[C@H]1O[C@H](O[C@H]2[C@H](O)[C@@H](O[C@H]3O[C@H](CO)[C@@H](O)[C@H](N)[C@H]3O)[C@H](N)C[C@@H]2N)[C@H](O)[C@@H](O)[C@@H]1O [Kanamycin, reference compound]							MIC [3, 10]: 1.56 to 6.25 µM; MIC [3, 11]: 0.76 to 3.03 µg/mL; MIC [5]: 0.78 µM to 1.56 µM and 0.38 µg/mL to 0.76 µg/mL

Further molecules by falling IC50 [1, 6], results first:

IC50 [1, 6] [µM]	MIC/IC50 Biofilm ([1]; S. aureus ATCC 25923)	MIC [3, 8] [µM]	SMILES	inhibition at 100 µM [2, 7] [%]	inhibition of growth at 100 µM [4, 9] [%]	Phenotype ([1]; S. aureus ATCC 25923)	other results
14.8	>6.8	> 100	O=C(/C=C/c1ccccc1)Oc1c(Br)cc(Br)c2nc3ccccc3nc12 [Compound 9a]	52 ± 5	-18 ± 4		increase in planktonic growth ([4]; 100 μM): ~15%; planktonic growth inhibition at 200 μM [4]: did not inhibit planktonic growth
2.44	0.6	1.56	O=C(Oc1c(Br)cc(Br)c2nc3ccccc3nc12)c1ccc(F)cc1 [Compound 24, 2,4-Dibromophenazin-1-yl 4-fluorobenzoate]	35 ± 4	-16 ± 6	antibacterial	MIC [3, 10]: 1.56 µM; MIC [3, 11]: 0.74 µg/mL
1.3	9.6		O=C(Oc1c(Br)cc(Br)c2nc3ccccc3nc12)c1ccc(C(F)(F)F)cc1 [Compound 16a]	29 ± 11	-3 ± 2	antibacterial	
1.1	11.4		O=C(Oc1c(Br)cc(Br)c2nc3ccccc3nc12)c1cc(C(F)(F)F)cc(C(F)(F)F)c1 [Compound 17a]	60 ± 8	-15 ± 3	antibacterial	increase in planktonic growth ([4]; 100 μM): ~15%; planktonic growth inhibition at 200 μM [4]: did not inhibit planktonic growth; planktonic growth while biofilm formation is inhibited (in words) ([4]; Mueller-Hinton broth, FIG. 20): dose-dependent increases in planktonic growth
0.95	>105	> 100	COc1ccc(C(=O)Oc2c(Br)cc(Br)c3nc4ccccc4nc23)cc1 [Compound 20a]	17 ± 5	-6 ± 4		IC50 ([1]; ATCC25923, S. aureus, three independent experiments, read-out: Biofilm inhibition IC50 (triplicate)): 10.3 µM; Phenotype ([2]; A. baumannii ATCC 19606): inactive
0.79	>127**	> 100	O=C(Oc1c(Br)cc(Br)c2nc3ccccc3nc12)c1cccs1 [Compound 24a]	32 ± 8	-10 ± 7	antibacterial; also recorded: antibacterial**	MIC ([3]; Table 2, S. aureus ATCC 25923, Luria Broth): >100** μM
